Source: PubChem BioAssay (NCI)
Values joined by “and” are separate entries in the source; they are usually repeats but may differ in a detail not shown here. Identical values can stand only once.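 Dose response: 5 concentrations. Exposure: 48 h. Format: 96-well plates. Endpoint: linear interpolation; highest concentration if not reached. Abbreviation: GI50, concentration required for 50% inhibition of growth. TGI is the concentration that stops growth completely.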

Tested on: SNB-19 CNS
Test: NCI-60 cell line screen, 48 h

Structure (SMILES)	TGI [µM]
COc1cc2c(cc1OC)C(O)[C@H](Br)C(C)(C)O2 (stereo partly specified)	> 100
Cc1cn(C2CC(N(O)Cc3ccccc3)C(CO)O2)c(=O)[nH]c1=O (stereo unspecified)	> 100
O=C(CCC/C(CC(=O)c1ccc(Br)cc1)=N\O)Nc1ccccc1	> 100
NC(CCC(=O)NC(CSC(=O)N(O)c1ccc(Br)cc1)C(=O)NCC(=O)O)C(=O)O (stereo unspecified)	> 100
CCOC(=O)CCc1c(C)c2c(OC(C)=O)cc(OC(C)=O)cc2oc1=O	> 100

Tested on: K-562 leukemia
Test: NCI-60 cell line screen, 48 h

Structure (SMILES)	TGI [µM]
N#C/C(=C\c1ccc(O)c(O)c1)C(N)=O	> 100
COc1cc2c(cc1OC)C(O)[C@H](Br)C(C)(C)O2 (stereo partly specified)	> 100
Cc1cn(C2CC(N(O)Cc3ccccc3)C(CO)O2)c(=O)[nH]c1=O (stereo unspecified)	> 100
COc1c(C)c2c(c(C)c1Cl)Oc1c(C=O)c(O)c(Cl)c(C)c1C(=O)O2	97
NC(CCC(=O)NC(CSC(=O)N(O)c1ccc(Br)cc1)C(=O)NCC(=O)O)C(=O)O (stereo unspecified)	> 100

Tested on: MDA-N
Test: NCI-60 cell line screen, 48 h

Structure (SMILES)	TGI [µM]
NC(CCC(=O)NC(CSC(=O)N(O)c1ccc(Br)cc1)C(=O)NCC(=O)O)C(=O)O (stereo unspecified)	> 50

Tested on: MDA-MB-435
Test: NCI-60 cell line screen, 48 h

Structure (SMILES)	TGI [µM]
NC(CCC(=O)NC(CSC(=O)N(O)c1ccc(Br)cc1)C(=O)NCC(=O)O)C(=O)O (stereo unspecified)	> 50

Tested on: SNB-75 CNS
Test: NCI-60 cell line screen, 48 h

Structure (SMILES)	TGI [µM]	GI50
N#C/C(=C\c1ccc(O)c(O)c1)C(N)=O	> 100	
COc1cc2c(cc1OC)C(O)[C@H](Br)C(C)(C)O2 (stereo partly specified)	> 100	
Cc1cn(C2CC(N(O)Cc3ccccc3)C(CO)O2)c(=O)[nH]c1=O (stereo unspecified)	> 100	
O=C(CCC/C(CC(=O)c1ccc(Br)cc1)=N\O)Nc1ccccc1	> 100	
COc1c(C)c2c(c(C)c1Cl)Oc1c(C=O)c(O)c(Cl)c(C)c1C(=O)O2	79.7	
NC(CCC(=O)NC(CSC(=O)N(O)c1ccc(Br)cc1)C(=O)NCC(=O)O)C(=O)O (stereo unspecified)	> 100	62.3 µM and 7.52 µM
CCOC(=O)CCc1c(C)c2c(OC(C)=O)cc(OC(C)=O)cc2oc1=O	> 100	

Tested on: HOP-92 NSCLC
Test: NCI-60 cell line screen, 48 h

Structure (SMILES)	TGI [µM]
N#C/C(=C\c1ccc(O)c(O)c1)C(N)=O	> 100
COc1cc2c(cc1OC)C(O)[C@H](Br)C(C)(C)O2 (stereo partly specified)	> 100
O=C(CCC/C(CC(=O)c1ccc(Br)cc1)=N\O)Nc1ccccc1	> 100
NC(CCC(=O)NC(CSC(=O)N(O)c1ccc(Br)cc1)C(=O)NCC(=O)O)C(=O)O (stereo unspecified)	> 100
CCOC(=O)CCc1c(C)c2c(OC(C)=O)cc(OC(C)=O)cc2oc1=O	> 100

Tested on: NCI-H23 lung
Test: NCI-60 cell line screen, 48 h

Structure (SMILES)	TGI [µM]
N#C/C(=C\c1ccc(O)c(O)c1)C(N)=O	93.8
COc1cc2c(cc1OC)C(O)[C@H](Br)C(C)(C)O2 (stereo partly specified)	> 100
Cc1cn(C2CC(N(O)Cc3ccccc3)C(CO)O2)c(=O)[nH]c1=O (stereo unspecified)	> 100
O=C(CCC/C(CC(=O)c1ccc(Br)cc1)=N\O)Nc1ccccc1	> 100
COc1c(C)c2c(c(C)c1Cl)Oc1c(C=O)c(O)c(Cl)c(C)c1C(=O)O2	45.2
NC(CCC(=O)NC(CSC(=O)N(O)c1ccc(Br)cc1)C(=O)NCC(=O)O)C(=O)O (stereo unspecified)	> 100
CCOC(=O)CCc1c(C)c2c(OC(C)=O)cc(OC(C)=O)cc2oc1=O	> 100

Tested on: LXFL 529 NSCLC
Test: NCI-60 cell line screen, 48 h

Structure (SMILES)	TGI [µM]
N#C/C(=C\c1ccc(O)c(O)c1)C(N)=O	> 100
COc1cc2c(cc1OC)C(O)[C@H](Br)C(C)(C)O2 (stereo partly specified)	> 100
Cc1cn(C2CC(N(O)Cc3ccccc3)C(CO)O2)c(=O)[nH]c1=O (stereo unspecified)	> 100
O=C(CCC/C(CC(=O)c1ccc(Br)cc1)=N\O)Nc1ccccc1	> 100
COc1c(C)c2c(c(C)c1Cl)Oc1c(C=O)c(O)c(Cl)c(C)c1C(=O)O2	82.9
NC(CCC(=O)NC(CSC(=O)N(O)c1ccc(Br)cc1)C(=O)NCC(=O)O)C(=O)O (stereo unspecified)	> 100
CCOC(=O)CCc1c(C)c2c(OC(C)=O)cc(OC(C)=O)cc2oc1=O	> 100

Tested on: SF-268 CNS
Test: NCI-60 cell line screen, 48 h

Structure (SMILES)	TGI [µM]
N#C/C(=C\c1ccc(O)c(O)c1)C(N)=O	> 100
COc1cc2c(cc1OC)C(O)[C@H](Br)C(C)(C)O2 (stereo partly specified)	> 100
Cc1cn(C2CC(N(O)Cc3ccccc3)C(CO)O2)c(=O)[nH]c1=O (stereo unspecified)	> 100
O=C(CCC/C(CC(=O)c1ccc(Br)cc1)=N\O)Nc1ccccc1	> 100
COc1c(C)c2c(c(C)c1Cl)Oc1c(C=O)c(O)c(Cl)c(C)c1C(=O)O2	> 100
NC(CCC(=O)NC(CSC(=O)N(O)c1ccc(Br)cc1)C(=O)NCC(=O)O)C(=O)O (stereo unspecified)	> 100
CCOC(=O)CCc1c(C)c2c(OC(C)=O)cc(OC(C)=O)cc2oc1=O	77.4
